{"source": "patent US8563578B2", "about": "“Antitumor properties of NO modified protease inhibitors” (Onconox APS, priority 2008, dated 2013)", "test_system": "B16 cells", "assay": "Viability (MTT) of B16 cells with Saq-NO2 plus Akt/PI-3K inhibitor", "type": "cell-based, mouse", "details": "B16, 24 h, 18.8 μM Saq-NO2 with Akt VI (50μg/ml) or 3-MA (1 mM)", "method": "Reduction of 3-4,5-dimethylthiazol-2-yl)-2,5-diphenyltetrazolium bromide (MTT) to formazan depends on mitochondrial activity of cultured cells, absorption of crystal violet dye correlates with the number of adherent, live cells, while the release of cytosolic lactate dehydrogenase (LDH) indicates the disruption of membrane integrity caracteristic for necrotic cells. The cells were seeded in flat-bottom 96-well plates in a final volume of 200 μl of culture medium containing different agents, and the assays were performed after 24 h incubation exactly as previously described (Mijatovic et al. 2004, Decker et al., 1998). Mitohondrial-dependent production of formazan and intensity of absorbed crystal violet by adherent cells were assessed by an automated microplate reader at 570 nm, while the pyruvate-mediated conversion of 2,4-dinitrophenylhydrazine into visible hydrazone precipitate in LDH assay was measured at 492 nm. The % of cytotoxicity as indicated by LDH release was calculated as: (E−C)/(T−C)×100, where E is the experimental absorbance of cell cultures, C is the control absorbance of cell-free culture medium, and T is the absorbance corresponding to the maximal (100%) LDH release of Triton-lysed cells.\nFIG. 6. […] (C) B16 cells (1×10^4 cells/well) were incubated for 24 h with 18.8 μM Saq-NO2 with or without Akt VI (50μg/ml) or 3-MA (1 mM) and cell viability was assessed by MTT. […]", "data": [{"smiles": "Cn1cnc(=N)c2[nH]cnc21", "note": "[3-MA]", "values": [{"measurement": "tumor cell viability on addition of inhibitor to Saq-NO2", "value": "further decrease of tumor cell viability"}]}]}
